Like-named read-outs stand apart in the source and are kept apart here.
Key:
WRN enzyme = target: T1, WRN enzyme (Homo sapiens, UniProt Q14191); assay: WRN helicase hydrolysis (unwinding) of double-stranded DNA, fluorescence assay; assay type: biochemical; conditions: 30 min pre-incubation, 60 min reaction
T1 construct: 10 μL (2×) of WRN enzyme solution was added
Method: • The molecules of the present disclosure were tested for their activities on the WRN helicase hydrolysis of double-stranded DNA (Table 1).
A working solution to be tested and a buffer were prepared. The compound to be tested was dissolved in DMSO and subjected to 4× dilution (with 10 μM final concentration as the starting concentration). 0.2 μL of the solution of the compound to be tested was added to the 384-well plate and 10 μL (2×) of WRN enzyme solution was added. The solution was incubated in the dark for 30 minutes. Then, 10 μL of a substrate detection solution containing double-stranded DNA was added to initiate the reaction (the DNA has a length of 19 bp, and labeled with TAMRA and BHQ2 at 3′ and 5′-ends, respectively). The solution was incubated at room temperature for 60 minutes. The inhibitory activities (IC50) against WRN enzyme were calculated based on the change of Ex530/Em590 in the blank group (DMSO) and the compound group.

[1] = test system: SW48 colorectal cancer cells; assay: 2D antiproliferation on MSI-H SW48 cells, CTG, 5 days; assay type: cell-based; conditions: for IC50 / inhibition at 38.15 pM / inhibition at 0.000152588 µM / inhibition at 0.000610352 µM / inhibition at 0.00976562 µM / inhibition at 0.0390625 µM / inhibition at 0.15625 µM / inhibition at 0.625 µM / inhibition at […] / inhibition at 10 µM: Homo sapiens; for IC50: 120 h, SW48 MSI-H, 5 days; for inhibition at 38.15 pM: SW48, 0.038146973 nM; for inhibition at 0.000152588 µM: SW48, 0.152587891 nM; for inhibition at 0.000610352 µM: SW48, 0.610351563 nM; for inhibition at 0.00976562 µM: SW48, 9.765625 nM; for inhibition at 0.0390625 µM: SW48, 39.0625 nM; for inhibition at 0.15625 µM: SW48, 156.25 nM; for inhibition at 0.625 µM: SW48, 625 nM; for inhibition at […]: SW48, 2500 nM; for inhibition at 10 µM: SW48, 10000 nM
Method: The molecules of the present disclosure were tested for their anti-proliferative activity on MSI-H tumor cells.
SW48 colorectal cancer cells with MSI were cultured in a RMI1640 medium containing 10% FBS and 1% penicillin-streptomycin, and the mixture was cultured in a 37° C., 5% CO2 incubator. 40 μL of cell suspension was added to each well of a 384-well microplate. […] of compounds with different concentrations were added to each well using Echo, and the mixtures were cultured in a 37° C., 5% CO2 incubator for 5 days. 40 μL of CTG solution (Promega, Cat No. G7573) was added to each well and incubated in a 37° C., 5% CO2 incubator in the dark for 30 minutes. The luminescence value was read using an Envision multi-function microplate reader (Perkin Elmer, catalog number Envision 2104). The optical signal is proportional to the amount of ATP in the system, while the ATP content directly characterizes the number of viable cells in the system.

[2] = test system: HT-29 colorectal cancer cells; assay: 2D antiproliferation on MSS HT-29 cells, CTG, 5 days; assay type: cell-based; conditions: Homo sapiens, 120 h, HT-29 MSS
Method: The molecules of the invention were tested for their anti-proliferative activities on MSS tumor cells.
HT-29 colorectal cancer cells with MSS were cultured in a McCoy's 5A medium containing 10% FBS and 1% penicillin-streptomycin in a 37° C., 5% CO2 constant temperature incubator. 40 μL of cell suspension was added to each well of a 384-well microplate. […] of compounds with different concentrations were added to each well using Echo. The mixtures were cultured in a 37° C., 5% CO2 constant temperature incubator for 5 days. 40 μL of CTG solution (Promega, Cat No. G7573) was added to each well, and the mixture was incubated in a 37° C., 5% CO2 constant temperature incubator for 30 minutes in the dark. The luminescence value was read using an Envision multi-function microplate reader (Perkin Elmer, catalog number Envision 2104). The optical signal is proportional to the amount of ATP in the system, while the ATP content directly characterizes the number of viable cells in the system.

[3] = test system: SW48 (MSI-H) colorectal cancer tumor cells; assay: In vivo efficacy, SW48 xenograft in nude mice; set-up: species or system BALB/c nude mice; conditions: QD, oral; for TGI: 21 days; for Tumor Volume D 1: day 1; for Tumor volume D 21: day 21
Method: In vivo efficacy experiment in BALB/C nude mice. Details are as follows:
SW48 (MSI-H) colorectal cancer tumor cells were cultured (in an L15 medium with 10% fetal bovine serum), and inoculated into 6-8 week old female BALB/c nude mice (with body weight of about 20 g). All the mice were inoculated subcutaneously. The mice were raised in an SPF-grade experimental environment, and all the mice were free to take commercially certified standard diets. When the tumors grew to an average volume of about 160 mm^3 in mice, the test compound was orally administered daily. […] The tumor volume was measured with a two-dimensional caliper three times a week, and the animals were weighed every day. […] The volume calculation formula is: V=1/2a*b^2, where a represents the long diameter of the tumor and b represents the short diameter of the tumor.

[4] = female, CD1, mouse, in vivo
Method: (§1) Mouse Pharmacokinetic Evaluation Experiment
(§2) CD1 female mice were used as test animals to be administered orally/intravenously (with oral dosage of 10 mg/kg or intravenous dosage of 2 mg/kg).
(§3) Experimental scheme: The oral administration group comprised 3 mice per group (Solvent: 10% Hβ-CD-pH7.4), and the intravenous group comprised 3 mice per group. […] The blood concentration in the plasma of mice was determined using the LC/MS/MS method after the oral or intravenous administration, respectively, and the collected data were calculated using the AB Sciex QTRAP 6500 software.

in vivo = conditions: female, CD1, mouse
Method: as §1, §2, §3

[5] = read-out: Average Value/Inhibition Rate
[6] = read-out: Test 1/Inhibition Rate
[7] = read-out: Test 2/Inhibition Rate

T1 sequence (Q14191 whole entry): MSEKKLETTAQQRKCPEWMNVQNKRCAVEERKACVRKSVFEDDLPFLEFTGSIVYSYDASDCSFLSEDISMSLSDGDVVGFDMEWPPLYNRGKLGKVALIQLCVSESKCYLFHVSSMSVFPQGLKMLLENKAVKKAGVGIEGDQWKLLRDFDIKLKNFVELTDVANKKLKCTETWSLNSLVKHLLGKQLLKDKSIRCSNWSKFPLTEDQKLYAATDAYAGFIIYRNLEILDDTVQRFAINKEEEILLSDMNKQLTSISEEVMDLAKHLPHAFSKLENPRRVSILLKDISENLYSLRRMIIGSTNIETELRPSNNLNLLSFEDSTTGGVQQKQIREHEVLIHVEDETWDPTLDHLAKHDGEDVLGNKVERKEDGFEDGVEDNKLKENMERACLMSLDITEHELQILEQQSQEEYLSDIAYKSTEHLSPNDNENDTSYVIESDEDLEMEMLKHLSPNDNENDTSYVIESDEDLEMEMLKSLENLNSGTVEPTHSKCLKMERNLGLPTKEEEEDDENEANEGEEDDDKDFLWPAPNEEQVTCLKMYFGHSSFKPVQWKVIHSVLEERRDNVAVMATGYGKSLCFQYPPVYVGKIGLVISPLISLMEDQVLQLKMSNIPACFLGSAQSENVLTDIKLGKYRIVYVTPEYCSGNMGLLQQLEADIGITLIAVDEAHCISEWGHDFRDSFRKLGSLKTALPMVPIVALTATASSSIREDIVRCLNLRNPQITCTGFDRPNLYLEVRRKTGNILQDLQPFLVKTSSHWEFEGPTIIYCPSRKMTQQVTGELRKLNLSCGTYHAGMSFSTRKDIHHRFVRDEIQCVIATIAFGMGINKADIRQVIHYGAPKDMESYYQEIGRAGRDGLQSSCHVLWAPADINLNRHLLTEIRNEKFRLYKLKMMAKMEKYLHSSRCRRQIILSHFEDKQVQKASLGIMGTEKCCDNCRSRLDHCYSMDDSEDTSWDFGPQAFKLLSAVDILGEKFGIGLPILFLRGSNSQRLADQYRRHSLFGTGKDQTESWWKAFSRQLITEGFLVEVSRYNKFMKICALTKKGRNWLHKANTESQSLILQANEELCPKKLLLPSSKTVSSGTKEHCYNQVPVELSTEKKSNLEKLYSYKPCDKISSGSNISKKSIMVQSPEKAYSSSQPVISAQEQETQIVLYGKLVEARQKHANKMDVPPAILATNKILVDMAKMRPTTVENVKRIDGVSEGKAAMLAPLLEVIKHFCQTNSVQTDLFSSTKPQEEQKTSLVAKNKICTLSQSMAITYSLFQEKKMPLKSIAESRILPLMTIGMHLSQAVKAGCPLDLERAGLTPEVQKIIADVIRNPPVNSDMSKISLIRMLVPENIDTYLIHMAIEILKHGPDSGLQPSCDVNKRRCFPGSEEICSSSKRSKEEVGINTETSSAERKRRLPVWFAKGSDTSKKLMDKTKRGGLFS

In the case of CCc1c(N2CCN(C(=O)c3ncnc(C)c3O)CC2)c(=O)n2nc(-c3cc4c(s3)COC4)nc2n1CC(=O)Nc1ccc(C(F)(F)F)cc1Cl [P7], the IC50 (WRN enzyme) is reported as 1.4 nM, the “inhibitory activity on SW48 cells” value ([1]; 39 nM) is reported as “high inhibitory activity” and the IC50 [1] is reported as 39 nM. For the same compound, the inhibition at 38.15 pM [1, 5] was 6.64%, the inhibition at 38.15 pM [1, 6] was 2.01% and the inhibition at 38.15 pM [1, 7] was 11.3%. For the same compound, the inhibition at 0.000152588 µM [1, 5] was 3.66%, the inhibition at 0.000152588 µM [1, 6] was -6.35% and the inhibition at 0.000152588 µM [1, 7] was 13.7%. It also gave an inhibition at 0.000610352 µM [1, 5] of 4.19%, an inhibition at 0.000610352 µM [1, 6] of -2.7% and an inhibition at 0.000610352 µM [1, 7] of 11.1%. It also gave an inhibition at 0.00976562 µM [1, 5] of 2.23%, an inhibition at 0.00976562 µM [1, 6] of -0.534% and an inhibition at 0.00976562 µM [1, 7] of 4.98%. For the same compound, the inhibition at 0.0390625 µM [1, 5] was 54.8%, the inhibition at 0.0390625 µM [1, 6] was 56% and the inhibition at 0.0390625 µM [1, 7] was 53.6%. It also gave an inhibition at 0.15625 µM [1, 5] of 99%, an inhibition at 0.15625 µM [1, 6] of 98.8% and an inhibition at 0.15625 µM [1, 7] of 99.2%. It also gave an inhibition at 0.625 µM [1, 5] of 100%, an inhibition at 0.625 µM [1, 6] of 100% and an inhibition at 0.625 µM [1, 7] of 100%. It also gave an inhibition at […] [1, 5] of 101%, an inhibition at […] [1, 6] of 101% and an inhibition at 10 µM [1, 5] of 101%. For the same compound, the inhibition at 10 µM [1, 6] was 101%, the inhibition at 10 µM [1, 7] was 101% and the IC50 [2] was over 10000 nM. The TGI ([3]; 20 mg/kg) was 82%, the “Tumor Volume D 1” value ([3]; 20 mg/kg) was 158 mm^3 and the “Tumor volume D 21” value ([3]; 20 mg/kg) was 491 mm^3. The TGI ([3]; 50 mg/kg) was 105%, the “Tumor Volume D 1” value ([3]; 50 mg/kg) was 158 mm^3 and the “Tumor volume D 21” value ([3]; 50 mg/kg) was 71 mm^3. For the same compound, the TGI ([3]; 120 mg/kg) was 105%, the “Tumor Volume D 1” value ([3]; 120 mg/kg) was 174 mm^3 and the “Tumor volume D 21” value ([3]; 120 mg/kg) was 24 mm^3.
With CCc1c(N2CCN(C(=O)c3ncccc3O)CC2)c(=O)n2nc(-c3ccc(CO)s3)nc2n1CC(=O)Nc1ccc(C(F)(F)F)cc1Cl [P9] the IC50 (WRN enzyme) was 1.2 nM, the IC50 [1] was 54 nM and the IC50 [2] was over 10000 nM. The F [4] was 25%, the AUC(0-t) (in vivo; iv, 2 mg/kg) was 1230 ng·h/mL and the C0 (in vivo; iv, 2 mg/kg) was 2840 ng/mL. For the same compound, the clearance (in vivo; iv, 2 mg/kg) was 27 mL/min/kg, the half-life (in vivo; iv, 2 mg/kg) was 0.9 h and the AUC(0-t) (in vivo; po, 10 mg/kg) was 1520 ng·h/mL. The Cmax (in vivo; po, 10 mg/kg) was 695 ng/mL, the Tmax (in vivo; po, 10 mg/kg) was 1 h and the half-life (in vivo; po, 10 mg/kg) was 1.4 h.
